The record followed here is US20250179143A1, “SYSTEMS AND METHODS FOR CHAPERONE-MEDIATED LIGAND EXCHANGE ON MHC-I AND MHC-RELATED MOLECULES USING CHICKEN TAPBPR” (priority 2022, published 2025).

The nature of series [1]: DSF thermal stability of pMHC-I molecules. It counts as physicochemical.
For a further series, the target named is HLA-A*02:01 (Homo sapiens, UniProt P04439, D140Y/D185E/D98H/E176V/E277Q/G131W/G231S/I119V/I121R/I166T/I218V/L300P/L318F/N151K/N90K/P208A/P217A/Q86G/Q94H/R138H/R169H/T345S). The series is described as follows: Fluorescence polarization (FP) peptide exchange. In general terms: Fluorescence polarisation rises when a labelled molecule tumbles more slowly, as on binding a larger partner.

Series [2] concerns the target chTAPBPR/HLA-B*08:01 complex (Homo sapiens, UniProt P01889, A93T/A95T/D138N/E176V/E187T/K202T/Q94N/R180D/S35A/V36M/Y33D/Y91F). The series can be described thus: EMSA of peptide-receptive complex with peptides. Conditions: 10-fold molar excess peptide. A general note: A gel shift assay detects complexes by their altered migration in electrophoresis.
The mark [3] stands for this setting: HLA-A*02:01 refolded with the named peptide.
[4] abbreviates: absence or presence of 10 nM hTAPBPR.

Non-standard residues stand in square brackets, D forms with d. No end group written: not given here.

A word on the Tm: it is the temperature at the midpoint of the melting transition.

For the substance “KILGFVFJV (photolabile J residue; VARIANT 8 J=3-amino-3-(2-nitrophenyl)-propionic acid) [PhotoA02, reference compound]”, the Tm in series [1] (setting [3]) stood at 52 °C.

With “A*02:01/βFILGFVFTV: HLA-A*02:01 loaded with βFILGFVFTV (SEQ ID NO: 66) ([βPhe]ILGFVFTV-OH; not fully specified; printed as βFILGFVFTV; also: loaded in HLA-A*02:01 complex)”, the “Tm (° C.)” value in series [1] (HLA-A*02 subtypes loaded with KILGFVFβFV and HLA-A*02:01 loaded with βF scanning peptides) came out at 53.9 °C.

As for KILGβFVFTV [βF-P5], the Tm in series [1] (setting [3]) stood at 62 °C. For the same substance, on HLA-A*02:01 (5000 nM hTAPBPR), the “exchange of βF placeholder peptide on HLA-A*02:01 for fluorescent peptide” value (shortened to “exchange of βF placeholder peptide”) is on record as “allowed peptide loading”.

With ALWMRLLPL [T1D30], the “pMHC-I bands upon incubation of the complex with the peptide” value (from here on “pMHC-I bands upon incubation”) in series [2] is “discrete pMHC-I bands”.

As for FLRGRAYGL [EBV], the “pMHC-I bands upon incubation” value in series [2] is reported as “discrete pMHC-I bands”.

In the case of KIβFGFVFTV [βF-P3], the Tm in series [1] (setting [3]) was 58 °C. Further, on HLA-A*02:01 (5000 nM hTAPBPR), the “exchange of βF placeholder peptide” value was “complete fluorescent peptide exchange”.

Consider KILGFVβFTV [βF-P7], for which, in series [1] (setting [3]), the Tm is 63 °C. Further, the results for the “exchange of βF placeholder peptide” value on HLA-A*02:01 (5000 nM hTAPBPR) and on HLA-A*02:01 (setting [4]) were “allowed peptide loading” and “no peptide exchange”, respectively.

In the case of AIFQSSMTK [HIV], the “pMHC-I bands upon incubation” value in series [2] is listed as “not”.

For KILβFFVFTV [βF-P4], the “exchange of βF placeholder peptide” value on HLA-A*02:01 (5000 nM hTAPBPR) is “complete fluorescent peptide exchange”.

βFILGFVFTV [βF-P1]: on HLA-A*02:01 (5000 nM hTAPBPR), the “exchange of βF placeholder peptide” value is given as “complete fluorescent peptide exchange”.

With ILDTAGQEEY [RAS, reference compound], the Tm in series [1] (HLA-A*01:01 refolded with the named peptide) was 52 °C.

Regarding MLYQHLLPL [T1D95], in series [2], the “pMHC-I bands upon incubation” value is listed as “discrete pMHC-I bands”.

Regarding KILGFVF(BF)V [BetaA02], in series [1] (setting [3]), the Tm was found to be 53 °C. Besides, on HLA-A*02:01 (5000 nM hTAPBPR), the “exchange of βF placeholder peptide” value is on record as “complete fluorescent peptide exchange”.

Regarding KILGFβFFTV [βF-P6], in series [1] (setting [3]), the Tm is 61 °C. Besides, the “exchange of βF placeholder peptide” value is on record as “allowed peptide loading” at HLA-A*02:01 (5000 nM hTAPBPR) and “no peptide exchange” on HLA-A*02:01 (setting [4]).
